The subject of this assay is P. falciparum 3D7 growth, pLDH absorbance. Briefly: P. falciparum 3D7 growth inhibition, dose response, strain 3D7 (AID 2305).

For `FC(F)(F)c1ccc2nc(-c3ccc(-c4cccc(CNCCN5CCNCC5)c4)cc3)[nH]c2c1`, the IC50 (commonly the midpoint of a concentration-inhibition curve) was 1.03 µM. `CCN(CC)CCN(Cc1ccc(-c2ccc(Cl)s2)cc1)C(=O)Cn1c(CCc2cccc(F)c2F)nc(=O)c2ccccc21` displayed an IC50 of 1.14 µM. This IC50 and that of the compound before are within 1.5-fold of each other.

For `O=c1cc(NCCCNCc2ccc(C(F)(F)F)s2)[nH]c2ccccc12`, the IC50 is 0.2 µM.

`CN1CCN(Cc2cccc(-c3cc4nccc(Nc5ccc(Oc6ccccc6)cc5)c4cc3Cl)c2)CC1` returned an IC50 of 0.73 µM. Consider `CC(C)(Oc1ccc(Cl)cc1)C(=O)NCCC1CCN(CCCCCNC(=O)/C=C/c2ccc(Cl)c(Cl)c2)CC1`, for which the IC50 is 0.94 µM. This IC50 and that of the compound before are within 1.5-fold of each other.

In turn, `COc1c(C2CCN(CCCCNC(=O)c3ccc(-c4ccc(Cl)cc4)c(OCC(N)=O)c3)CC2)ccc2c1CCCC2` yielded an IC50 of 1.01 µM.

`CC[C@H]1CN2CC[C@@H]1C[C@H]2[C@H](O)c1cc(N2CCC(C)CC2)nc2ccc(OC)cc12` displayed an IC50 of 0.17 µM. For `CC(O)C1CCCCN1C(=O)c1ccc(-c2ccc(-c3nc4ccccc4[nH]3)s2)cc1` (configuration not stated) the value was 0.97 µM; for `CN1CCN(c2cccc(-c3nnc(-c4ccc(OCC(=O)NCc5ccc(C(F)(F)F)cc5)c([N+](=O)[O-])c4)o3)c2)CC1`, 0.66 µM; for `CS(=O)(=O)c1cccc(-c2cnc(N)c3cc(-c4cccc(F)c4)ccc23)c1`, 0.86 µM. For `CC(=O)COc1c(C2CCN(CCCCNC(=O)c3ccc(-c4ccc(C(F)(F)F)cc4)cc3)CC2)ccc2c1CCCC2` the value was 0.78 µM; for `Cc1cc(NN=Cc2ccc(Cl)cc2)c2cc(C(F)(F)F)ccc2n1`, 0.92 µM. In turn, `O=C(Nc1ccc(F)cc1F)NC1CCN(c2ccnc3cc(Cl)ccc23)C1` (configuration not stated) yielded an IC50 of 0.25 µM. Then `S=C(Nc1ccccc1Cl)NC1CCC(CN2CCC(c3c[nH]c4ccccc34)CC2)CC1` (configuration not stated), with 1.05 µM; and `Cc1cc(-c2ccc3c(c2)CCN(CCC2CCC(NC(=O)/C=C/c4ccccc4F)CC2)CC3)on1` (configuration not stated), with 0.81 µM; and `COc1ccc(NCCCNc2ccnc3ccccc23)cc1`, with 0.97 µM. Compound `CCCCCC(C)C(C)c1cc(O)c2c(c1)O[C@@]1(C(C)C)CC(O)[C@H](C)[C@@H]2C1` (some centres not stated) returned an IC50 of 0.99 µM. The IC50 values of the last two compounds are within 1.5-fold of each other. `Fc1ccc2nc(-c3ccc(-c4ccc(CN5CCC(CCN6CCCCC6)CC5)cc4)cc3)[nH]c2c1` showed an IC50 of 0.13 µM. `CCCCCCCCc1c(C)[nH]c(C)c(Cl)c1=O` registered an IC50 of 0.23 µM. `CC(=O)c1cccc(Nc2nc3c(C#N)c(OCc4cc(Cl)cc(Cl)c4)ccc3[nH]2)c1` returned an IC50 of 0.87 µM.

The compound `O=c1cc(NCCC(CNCCc2ccccc2)NCc2cc(Br)cc(Br)c2)[nH]c2ccccc12` (configuration not stated) returned an IC50 of 0.51 µM. Take `FC(F)(F)c1ccc2nc(-c3cccc(-c4cccc(CNCCc5ccncc5)c4)c3)[nH]c2c1`: the IC50 was 0.14 µM.

In the case of `c1cncc(NCc2ccc(-c3cc4ccncc4cc3OC3CCNCC3)s2)c1`, the IC50 was 0.98 µM.

For `COc1ccc(CNCCCCCCCNCc2ccc(Cl)c(Cl)c2)cc1Cl`, the IC50 is 1.22 µM. For the compound `Cc1cccc2[nH]c(-c3cc(-c4cn[nH]c4)cnc3N)nc12`, the IC50 came out at 0.22 µM. Then `COc1cc(Nc2nc(N)n(C(=O)c3ccc4c(c3)OCO4)n2)cc(OC)c1OC`, with 1.13 µM.

In turn, `Cn1nc(C(F)(F)F)c(-c2ccc(F)cc2)c1NC(=O)Nc1ccc(F)cc1` had a concentration for half-maximal inhibition (IC50) of 0.75 µM. Consider `COc1cc(OC)cc(C(=O)N2CCOC(CCN3CCC(c4ccccc4)CC3)(c3ccc(Cl)c(Cl)c3)C2)c1` (configuration not stated), for which the IC50 turned out to be 0.44 µM. Compared with the last compound, the IC50 is about 1.7-fold lower. `CCc1cn(C)c2c(N3CCCC3=O)cc(C(=O)N[C@@H](Cc3ccccc3)[C@H](O)CNC3CCCCC3)cc12` had an IC50 of 0.12 µM. For `Cc1[nH]c(C)c(-c2ccc(-c3ccccc3Cl)nc2)c(=O)c1Br` the value was 0.17 µM; for `CN1CCN(Cc2nc(-c3ccc4c(Nc5ccc(Oc6ccccc6)cc5)ccnc4c3)cs2)CC1`, 0.31 µM. The compound `COc1ccc(CCN(C)CCc2ccc(NC(=O)c3cccc4c(=O)c5ccccc5sc34)cc2)cc1` gave an IC50 of 0.86 µM. For `CCCCCCN1CCC(CNCc2cccc([N+](=O)[O-])c2)CC1` the value was 0.72 µM. For `COc1ccc(CNc2nc(NCc3ccccc3)c3cc(OC)c(OC)cc3n2)cc1OC` the value was 0.54 µM; for `O=C(Nc1ccc(OC(F)(F)F)cc1)NC1CCN(c2ccnc3ccccc23)CC1`, 0.3 µM.

In turn, `CC1(C)N=C(NC(=O)Nc2ccc([N+](=O)[O-])cc2)N=C(N)N1OCc1cccc2ccccc12` had an IC50 of 0.06 µM.

For the compound `CC(C)c1cn2c3c(cc(C(=O)N[C@@H](Cc4ccccc4)[C@H](O)CNC4CCCCC4)cc13)N(C)S(=O)(=O)CC2`, the IC50 was 0.03 µM. This IC50 is about 2-fold lower than that of the compound before. Then `CC(C)CNCc1ccc(-c2cccc(CN(CCN(C)C)C(=O)NCCc3ccccc3)c2)cc1`, with 1.06 µM; and `CN1CCC(c2nc(N)no2)C1` (configuration not stated), with 0.98 µM; and `Cc1ccc(C(=O)Nc2cccc(CN3CCCN(Cc4ccc(O)cc4)CC3)c2)s1`, with 1 µM. With `COc1ccc(Cn2c(Nc3cccc(C(F)(F)F)c3)nc3cc(C(=O)NCCN4CCCC4)cnc32)cc1Cl`, the IC50 was 0.92 µM. Turning to `Cc1nnc2c(NC(=O)NC(C)C)cc3cc(-c4ccc(CN5CCCCC5)cc4)ccc3n12`, the IC50 came out at 1.18 µM. `O=C(Nc1ccc(F)cc1)NC1CCN(c2ccnc3cc(Cl)ccc23)C1` (configuration not stated) yielded an IC50 of 0.22 µM. `Nc1nc(N)c2c(ccc3c2cnn3Cc2cccnc2)n1`: the IC50 came out at 0.05 µM. `O=C(Cc1cccc(O)c1)NCC(Cc1ccc(O)cc1)c1ccccc1` (configuration not stated) displayed an IC50 of 0.64 µM. Compared with the last compound, the IC50 is about 13-fold higher. As to `FC(F)(F)c1ccc2nccc(NN=Cc3ccccc3Cl)c2c1`, the IC50 amounted to 0.8 µM. On to `Cc1cnccc1/C=C/c1cccc(OCCCN2CCc3ccc(S(C)(=O)=O)cc3CC2)c1`, for which the IC50 amounted to 0.61 µM. The IC50 values of the last two compounds are within 1.5-fold of each other. Turning to `Cc1cc(NN=Cc2ccccc2F)c2cccc(C)c2n1`, the IC50 is 0.76 µM. With `COc1ccc2nccc([C@@H](O)CN3[C@@H]4CC[C@H]3CC(NCc3ccc5c(n3)NC(=O)CS5)C4)c2n1` (some centres not stated), the IC50 worked out at 0.93 µM. As for `CCCCc1ccccc1NS(=O)(=O)c1ccc(OC)c(N2CCNCC2)c1`, the half-maximal inhibitory concentration (IC50) worked out at 1.38 µM. As to `Cc1cc(C(=O)NC2CCN(CC3(c4ccccc4)CCCCC3)CC2)on1`, the IC50 is 0.26 µM. This IC50 lies about 5.3-fold lower than the previous one. In turn, `COc1ccc(OCCON)cc1` had an IC50 of 0.2 µM. In the case of `Nc1ccc(-c2ccc3ccnc(N)c3c2)cc1`, the IC50 is 0.68 µM.

In the case of `COC(=O)c1cccc(NC(=O)NC2CCN(c3ccnc(NCc4ccc(F)cc4)n3)CC2)c1`, the IC50 was 0.81 µM. Take `Cc1cc(NCCCOc2ccc(Cl)cc2)nc(NCc2ccccc2)n1`: the 50% inhibitory concentration (IC50) stood at 0.78 µM. `Cc1ccc(C(=O)Nc2cc(C(F)(F)F)cc(C(F)(F)F)c2)cc1[N+](=O)[O-]` displayed an IC50 of 0.93 µM. `Cc1[nH]nc2cc(Nc3ccnc(Nc4ccc(CN5CCOCC5)cc4)n3)ccc12` displayed an IC50 of 0.95 µM. `Cc1cccc2[nH]c(-c3cccc(-c4ccc(NC(=O)Nc5ccc6c(c5)OCO6)cc4)c3)nc12` showed an IC50 of 0.14 µM. The compound `O=S(=O)(c1ccccc1C(F)(F)F)C1C[C@H]2CC[C@@H](C1)N2S(=O)(=O)c1ccc(Cl)c(C(F)(F)F)c1` (some centres not stated) showed an IC50 of 0.71 µM. Against the preceding compound, the IC50 is about 5.1-fold higher. As to `COc1ccc(Cl)cc1N1CCN(CCCNC(=O)c2ccc(-c3nc4cc(Cl)c(Cl)cc4[nH]3)c(C)c2)CC1`, the IC50 stood at 0.87 µM.

Consider `COc1ccc2nc(C)cc(Nc3ccc(Cl)cc3)c2c1`, for which the IC50 is 0.95 µM.

As for `CS(=O)(=O)c1ccc(-c2cc(C(F)(F)F)nc(N[C@@H]3CCCC[C@H]3OCc3ccccc3)n2)cc1`, the IC50 was found to be 0.06 µM. In the case of `COc1ccc2c(c1)Sc1ccccc1C(N1CCN(CCO)CC1)C2` (configuration not stated), the IC50 came out at 1.39 µM. Against the preceding compound, the IC50 is about 23-fold higher. Compound `CCCCNCc1ccc(-c2nc(CN(Cc3ccc(Cl)c(Cl)c3)S(=O)(=O)c3ccc(NC(C)=O)cc3)cs2)cc1` gave an IC50 of 1.03 µM. `CN(C)CCOc1cc(NC(=O)Nc2ccc(Cl)cc2C(F)(F)F)ccc1I` showed an IC50 of 0.93 µM. In turn, `O=C(Nc1cccc(CN2CCCN(Cc3ccsc3)CC2)c1)c1cc2ccccc2s1` registered an IC50 of 0.76 µM. In the case of `Cc1nnsc1C(=O)Nc1ccc(-c2ccc(-c3nc4c(C)cccc4[nH]3)s2)cc1`, the IC50 came out at 0.59 µM.

Regarding `Cc1cc(NC(=O)c2cccs2)ccc1OC1CCN(Cc2ccc(C#N)cc2)CC1`, the IC50 came to 0.72 µM. The compound `C[C@H](Cc1ccc(CCc2ccc(C[C@@H](C)NC[C@H](O)c3cccc(Cl)c3)cc2)cc1)NC[C@H](O)c1cccc(Cl)c1` came in with an IC50 of 0.94 µM. For `COc1ccc2nccc(NN=Cc3cccc(C)n3)c2c1`, the IC50 was 0.76 µM. Regarding `COc1ccc2[nH]c(C(=O)Nc3ccc4nc(-c5ccccc5)[nH]c4c3)cc2c1`, the IC50 worked out at 0.83 µM.

`Cc1cccc2sc(N(CCCn3ccnc3)C(=O)C=Cc3cccs3)nc12` came in with an IC50 of 1.28 µM. For `Cc1cc(N[C@@H](Cc2ccccc2)C(=O)NCc2cccc(F)c2)nc(NCCOc2ccccc2)n1` the value was 0.79 µM. `O=C(NC1CCC(N2CCC(c3nc4ccccc4s3)CC2)CC1)c1cc2ccccc2[nH]1` (configuration not stated) had an IC50 of 0.93 µM. `CC[C@H]1CN2CC[C@H]1C[C@H]2[C@H](O)c1cc(-c2ccccc2C(F)(F)F)nc2ccc(OC)cc12` showed an IC50 of 0.23 µM. `Cn1cnc(CCNC(=O)c2cccc(-c3csc(-c4nc5ccccc5[nH]4)c3)c2)c1`: the IC50 amounted to 0.6 µM. For `CCOc1ccc(-c2nonc2NC(=O)c2ccc(F)cc2)cc1OCC`, the IC50 came to 0.33 µM. `Cc1cc(N2CC=CCC2)nc(/N=C(\N)Nc2ccc(Cl)cc2)n1`: the IC50 turned out to be 0.78 µM. `Cc1[nH]c2ccc([N+](=O)[O-])cc2c1C1=CCN(C)CC1` yielded an IC50 of 0.33 µM. This IC50 is about 2.4-fold lower than that of the compound before.

Turning to `CN1CCN=C1c1ccc(NC(=O)Nc2ccc(C3=NCCN3C)cc2)cc1`, the IC50 was 0.38 µM. As to `CC(C)(C)C(C)(C)Cc1ccc(O)c(CN2CCN(c3ccccc3)CC2)c1`, the IC50 came out at 0.6 µM. Compared with the last compound, the IC50 is about 1.6-fold higher. For the compound `CC1(C)CCC(C)(C)c2c1ccc(C1CCN(CCCCNC(=O)c3ccc(-c4ccc(C#N)cc4)cc3)CC1)c2OCC(N)=O`, the IC50 amounted to 0.42 µM.

Turning to `CN(C)Cc1cccc(-c2ccc(NC(=O)c3ccc4c(=O)n(CCN5CCCCC5)cnc4c3)cc2)c1`, the IC50 came to 0.65 µM.

The compound `COCCN(C(=O)Cc1cccs1)C(C(=O)NCc1ccc(OC)cc1)c1ccc(C(C)C)cc1` (configuration not stated) had an IC50 of 0.84 µM. As to `O=c1cc(NCCCNCc2cc(Br)cs2)[nH]c2ccccc12`, the IC50 worked out at 1.06 µM. Then `Cc1cc(C2CCN(CCCCNC(=O)c3ccc(NC(=O)c4ccc(Cl)cc4)cc3)CC2)c(C)cc1OCc1cccnc1`, with 0.6 µM; and `COC(=O)C1=C(C)NC2=C(C(=O)CC(c3ccc(OC)c(OC)c3)C2)C1c1cccc(O)c1` (configuration not stated), with 0.73 µM.

For the origin of these results see PubChem BioAssay AID2305 (GlaxoSmithKline (GSK), 2010).
